Results taken from PMC9506420, “Biological Evaluation of 3-Azaspiro[Bicyclo[3.1.0]Hexane-2,5′-Pyrimidines] as Potential Antitumor Agents” (International Journal of Molecular Sciences, 2022).
Values joined by “and” are separate entries in the source; they are usually repeats but may differ in a detail not shown here. Equal entries are not always repeated. Where two headings read alike, the source gives them in different places.

Columns and labels:
CT26 cells [1] = experiment: Cell cycle distribution by flow cytometry (propidium iodide), CT26; assay type: cell-based, mouse; conditions: for SubG1 (%) / G2/M (%) / S (%) / G0/G1 (%): CT26, 10 μg/mL, 24 h; for SubG1 (%): control 3.6 ± 0.6; for G2/M (%): control 12.3 ± 0.9; for S (%): control 40.1 ± 1.5; for G0/G1 (%): control 44.0 ± 1.7; for cytostatic effect (cell cycle), CT26: CT26 cell line
Description: One of the indicators of the influence of biologically active products on the cells is the changed distribution of cells during different stages of the cell cycle. In this work, recently synthesized compounds were tested using flow cytometry for their effect on the distribution of cells in the cell cycle (G0/G1, G2/M, and S). Figure 8, Figure 9 and Figure 10 and Table 3 show the typical data after processing the results from three replicates of each experiment.
The distribution of HeLa and CT26 cells in the G0/G1-, S-, and G2/M-phases of the cell cycle was obtained by quantification of DNA content in propidium-iodide-stained cells using flow cytometry. Briefly, cells were seeded in 24-well plates at a density of 5 × 10^4 cells per well. After 24 h incubation, cells were exposed to 10 μg/mL of compounds 4c–i (the structure is provided in Scheme 1) for 24 h. The effects of compounds 4d, 4e, 4g, 4h were additionally tested at concentrations of 2 and 5 μg/mL. After incubation with drugs, the cells were detached by exposure to trypsin-EDTA for 5 min at 37 °C and then collected by pipetting. This was followed by treatment with 0.2 mg/mL saponin (Fluka, Waltham, MA, USA), 0.25 mg/mL RNase (Sigma-Aldrich, St. Louis, MO, USA), and 0.05 mg/mL propidium iodide (Invitrogen, Carlsbad, CA, USA). After washing, the samples were analyzed by standard flow cytometer (BD FACSCanto II, Becton Dickinson, San Jose, CA, USA). Then, 10,000 events were acquired for the sample. Data processing was performed using BD FACSDiva 9.0 software.

HeLa cells = experiment: Annexin V-FITC/DAPI cell death analysis, HeLa; assay type: cell-based, human; conditions: 10 μg/mL, 72 h; for Necrotic Cells, %: control 0.5 ± 0.3; for Early Apoptotic Cells, %: control 4.5 ± 0.7; for Late Apoptotic Cells, %: control 5.9 ± 0.4; for Live Cells, %: control 89.0 ± 0.7
Description: (§1) The results of cell death detection after the exposure of the HeLa and CT26 cell lines to spiro-fused cycloadducts 4c–i at a dose of 10 μg/mL for 72 h, using Annexin V-FITC/DAPI staining, are shown in Figure 6 and Figure 7, respectively.
(§2) Cells were seeded in 24-well plates, 5 × 10^4 cells per well. After 24 h incubation, cells were treated with compounds 4c–i for 72 h. Then, cells were washed, harvested by trypsinisation, stained with Annexin V-FITC ([…]) and DAPI (Thermo Fisher Scientific, Waltham, MA, USA), in accordance with the protocol of the manufacturer, and analyzed by flow cytometry. The proapoptotic effect of azaspiro[bicyclo[3.1.0]hexane-2,5′-pyrimidines] 4c–i was evaluated by an Annexin V-FITC/DAPI (AV/DAPI) dual-staining assay to examine the occurrence of phosphatidylserine externalization, which facilitated the detection of live cells (lower-left quadrant; AV−/DAPI−), early apoptotic cells (upper-left quadrant; AV+/DAPI−), late apoptotic cells (upper-right quadrant; AV+/DAPI+), and necrotic cells (lower-right quadrant; AV−/DAPI+).

CT26 cells [2] = experiment: Annexin V-FITC/DAPI cell death analysis, CT26; assay type: cell-based, mouse; conditions: CT26, 10 μg/mL, 72 h; for Necrotic Cells, %: control 0.0 ± 0.0; for Late Apoptotic Cells, %: control 0.9 ± 0.4; for Early Apoptotic Cells, %: control 10.5 ± 0.7; for Live Cells, %: control 88.5 ± 1.1
Description: as §1, §2

[3] = system: human T lymphocyte (Jurkat) cell line; experiment: MTS antiproliferative (cytotoxicity) assay, Jurkat; assay type: cell-based; conditions: for IC50: Homo sapiens, MTS; for SI (selectivity index), Jurkat: Vero as reference cell line
Description: The cytotoxicity of synthesized 3-azaspiro[bicyclo[3.1.0]hexane-2,5′-pyrimidines] 4 against human erythroleukemia (K562), cervical carcinoma (HeLa), and T lymphocyte (Jurkat), as well as mouse colon carcinoma (CT26) and African green monkey kidney epithelial (Vero) cell lines as reference, was evaluated in vitro by the standard MTS assay for 24 and 72 h. The results are presented in Figure 1, Figure 2, Figure 3, Figure 4 and Figure 5 (data on all, tested on K562, HeLa, and CT26 cell lines’ compounds, are given at SI, Figures S1–S3). […] Replacement of the phenyl group by either the carboxymethyl or N-isopropylcarbamoyl group has led to a significant decrease in the activity of spiro-fused cycloadducts comprising azabicyclo[3.1.0]hexane and alloxane moieties.
(§3) All the cell lines (human cervical carcinoma (HeLa), erythroleukemia (K-562), and T lymphocyte (Jurkat) as well as mouse colon carcinoma (CT26) and African green monkey kidney epithelial (Vero)) were obtained from the cell repository “Vertebrate cell culture collection” (supported by the Ministry of Science and Higher Education of the Russian Federation, agreement №075-15-2021-683, Institute of Cytology, Russian Academy of Sciences, Saint Petersburg, Russia). HeLa, Jurkat, and Vero cells were cultured in DMEM (HyClone, South Logan, UT, USA) supplemented with 10% (v/v) fetal bovine serum (Hyclone, GE Healthcare Life Sciences, Logan, UT, USA), and gentamicin (Sigma-Aldrich, St. Louis, MO, USA) at 37 °C in a humidified atmosphere with 5% CO2. K-562 and CT26 cells were grown at RPMI medium (Hyclone, GE Healthcare Life Sciences, Logan, UT, USA), with the same supplements and conditions.
(§4) To evaluate the in vitro toxicity of compounds synthesized, cells were seeded into 96-well plates at a density of 5 × 10^3 cells per well. On the next day, tested compounds were added to the wells at concentrations ranging from […], followed by incubation for 1 and 3 days. Cell proliferation was determined by adding 20 μL of MTS reagent (BioVision, Milpitas, CA, USA) stock solution per well. Each plate was incubated for 2 h at 37 °C in a humidified, 5% CO2 atmosphere. The plates were then read at 495 nm using plate spectrophotometer (Multiskan GO, Thermo Fisher Scientific, Waltham, MA, USA). All samples were measured in triplicates.

[4] = system: human erythroleukemia (K562) cell line; experiment: MTS antiproliferative (cytotoxicity) assay, K562; assay type: cell-based; conditions: for IC50: Homo sapiens; for SI (selectivity index), K562: Vero as reference cell line
Description: (§5) The cytotoxicity of synthesized 3-azaspiro[bicyclo[3.1.0]hexane-2,5′-pyrimidines] 4 against human erythroleukemia (K562), cervical carcinoma (HeLa), and T lymphocyte (Jurkat), as well as mouse colon carcinoma (CT26) and African green monkey kidney epithelial (Vero) cell lines as reference, was evaluated in vitro by the standard MTS assay for 24 and 72 h.
as §3, §4

[5] = system: African green monkey kidney epithelial (Vero) cell line; experiment: MTS antiproliferative (cytotoxicity) assay, Vero (reference); assay type: cell-based; conditions: Chlorocebus sabaeus, Vero
Description: as §5, §3, §4

[6] = system: mouse colon carcinoma (CT26) cell line; experiment: MTS antiproliferative (cytotoxicity) assay, CT26; assay type: cell-based; conditions: for SI (selectivity index), CT26: Vero as reference cell line; for IC50: Mus musculus
Description: as §5, §3, §4

[7] = 24 h, read-out: IC50, Jurkat, 24 h
[8] = 72 h, read-out: IC50, Jurkat, 72 h
[9] = K562, 24 h, read-out: IC50, K562, 24 h
[10] = K562, 72 h, read-out: IC50, K562, 72 h
[11] = 24 h, read-out: IC50, Vero, 24 h
[12] = 72 h, read-out: IC50, Vero, 72 h
[13] = CT26, 24 h, read-out: IC50, CT26, 24 h
[14] = CT26, 72 h, read-out: IC50, CT26, 72 h

CCC[C@@H]1NC2(C(=O)NC(=O)NC2=O)[C@]2(c3ccccc3)[C@@H](c3ccccc3)[C@]12c1ccccc1 [Compound 4d]
SubG1 (%) (CT26 cells [1]): 12.2 ± 1.1 %
G2/M (%) (CT26 cells [1]): 17.9 ± 0.6 %
S (%) (CT26 cells [1]): 34.4 ± 2.3 %
G0/G1 (%) (CT26 cells [1]): 35.6 ± 1.0 %
cytostatic effect (cell cycle), CT26 (CT26 cells [1]): best effect
Necrotic Cells, % (HeLa cells): 3.6 ± 1.8 %
Early Apoptotic Cells, % (HeLa cells): 11.6 ± 0.2 %
Late Apoptotic Cells, % (HeLa cells): 38.1 ± 16.8 %
Live Cells, % (HeLa cells): 46.8% and 46.8 ± 18.4 %
Necrotic Cells, % (CT26 cells [2]): 1.1 ± 0.3 %
Late Apoptotic Cells, % (CT26 cells [2]): 56.4 ± 2.4 %
Early Apoptotic Cells, % (CT26 cells [2]): 9.6 ± 0.5%
Live Cells, % (CT26 cells [2]): 32.8 ± 3.0 %
IC50 [3, 7]: 15 ± 2 µM
IC50 [3, 8]: 13 ± 2 µM
SI (selectivity index), Jurkat [3]: 1.3
IC50 [4, 9]: 21 ± 4 µM
IC50 [4, 10]: 9 ± 2 µM
SI (selectivity index), K562 [4]: 1.8
IC50 [5, 11]: 48 ± 4 µM
IC50 [5, 12]: 16 ± 2 µM
SI (selectivity index), CT26 [6]: 1.3
IC50 [6, 13]: 17 ± 2 µM
IC50 [6, 14]: 13 ± 2 µM

CSCC[C@@H]1NC2(C(=O)NC(=O)NC2=O)[C@]2(c3ccccc3)[C@@H](c3ccccc3)[C@]12c1ccccc1 [Compound 4h]
SubG1 (%) (CT26 cells [1]): 10.8 ± 2.3 %
G2/M (%) (CT26 cells [1]): 18.9 ± 6.8 %
S (%) (CT26 cells [1]): 32.0 ± 0.6 %
G0/G1 (%) (CT26 cells [1]): 38.3 ± 7.9 %
cytostatic effect (cell cycle), CT26 (CT26 cells [1]): best effect
Necrotic Cells, % (HeLa cells): 1.9 ± 0.2 %
Early Apoptotic Cells, % (HeLa cells): 9.8 ± 1.0 %
Late Apoptotic Cells, % (HeLa cells): 15.3 ± 0.5 %
Live Cells, % (HeLa cells): 72.2% and 72.2 ± 0.4 %
Necrotic Cells, % (CT26 cells [2]): 0.9 ± 0.3 %
Late Apoptotic Cells, % (CT26 cells [2]): 24.0 ± 0.7 %
Early Apoptotic Cells, % (CT26 cells [2]): 4.8 ± 0.5 %
Live Cells, % (CT26 cells [2]): 70.3 ± 0.6 %
IC50 [3, 7]: 18 ± 4 µM
IC50 [3, 8]: 13 ± 4 µM
SI (selectivity index), Jurkat [3]: 1.7
IC50 [4, 9]: 20 ± 4 µM
IC50 [4, 10]: 10 ± 2 µM
SI (selectivity index), K562 [4]: 2.2
IC50 [5, 11]: 31 ± 4 µM
IC50 [5, 12]: 22 ± 4 µM
SI (selectivity index), CT26 [6]: 1.4
IC50 [6, 13]: 22 ± 2 µM
IC50 [6, 14]: 16 ± 2 µM

CC(C)C[C@@H]1NC2(C(=O)NC(=O)NC2=O)[C@]2(c3ccccc3)[C@@H](c3ccccc3)[C@]12c1ccccc1 [Compound 4f]
SubG1 (%) (CT26 cells [1]): 24.9 ± 5.2 %
G2/M (%) (CT26 cells [1]): 13.5 ± 0.9 %
S (%) (CT26 cells [1]): 31.9 ± 2.6 %
G0/G1 (%) (CT26 cells [1]): 29.7 ± 1.4 %
cytostatic effect (cell cycle), CT26 (CT26 cells [1]): best effect
rate of cell death in HeLa vs control (HeLa cells): not different from the control
Necrotic Cells, % (HeLa cells): 2.1 ± 1.3 %
Early Apoptotic Cells, % (HeLa cells): 2.9 ± 0.1 %
Late Apoptotic Cells, % (HeLa cells): 4.1 ± 0.5 %
Live Cells, % (HeLa cells): 90.9 ± 1.6%
Necrotic Cells, % (CT26 cells [2]): 1.9 ± 0.5 %
Late Apoptotic Cells, % (CT26 cells [2]): 57.8 ± 3.1 %
Early Apoptotic Cells, % (CT26 cells [2]): 6.2 ± 1.2 %
Live Cells, % (CT26 cells [2]): 34.1 ± 3.8 %
IC50 [3, 7]: 11 ± 2 µM
IC50 [3, 8]: 9 ± 2 µM
SI (selectivity index), Jurkat [3]: 1.2
IC50 [4, 9]: 17 ± 4 µM
IC50 [4, 10]: 6 ± 2 µM
SI (selectivity index), K562 [4]: 1.7
IC50 [5, 11]: 48 ± 6 µM
IC50 [5, 12]: 10 ± 2 µM
SI (selectivity index), CT26 [6]: 1.0
IC50 [6, 13]: 17 ± 2 µM
IC50 [6, 14]: 10 ± 2 µM
